Several values for one entry are separate records, joined by “and”; a condition that tells them apart may be missing. Equal values may be shown once.
What was measured:
Format in all cases: in vivo, rat
[1] = test system: prostate, seminal vesicles and levator ani muscle; assay: Androgenic and anabolic activity in castrated (ORX) male rats, daily oral gavage for fourteen days; details: castrated rats, comparators
Method: Male Sprague-Dawley rats weighing approximately 200 g were purchased from Harlan Bioproducts for Science (Indianapolis, Ind.). […] The anabolic and androgenic activity of compound of Formula VIII in intact animals was tested, as well as a dose response evaluation in acutely orchidectomized (ORX) animals. Regenerative effects of the compound of Formula VIII in chronically (9 days) ORX rats was similarly evaluated.
The test article for this study was weighed and dissolved in 10% DMSO (Fisher) diluted with PEG 300 (Acros Organics, NJ) for preparation of the appropriate dosage concentrations. […] Animals were randomly assigned to one of seven groups consisting of 4 to 5 animals per group. Control groups (intact and ORX) were administered vehicle daily. Compound of Formula VIII was administered via oral gavage at doses of 0.01, 0.03, 0.1, 0.3, 0.75, and 1 mg/day to both intact and ORX groups. Where appropriate, animals were castrated on day one of the study. Treatment with compound of Formula VIII began nine days post ORX and was administered daily via oral gavage for fourteen days.
(§1) In addition, ventral prostate, seminal vesicles, and levator ani muscle were removed, individually weighed, normalized to body weight, and expressed as a percentage of intact control. Student's T-test was used to compare individual dose groups to the intact control group. Significance was defined a priori as a P-value <0.05. Ventral prostate and seminal vesicle weights were evaluated as a measure of androgenic activity, whereas levator ani muscle weight was evaluated as a measure of anabolic activity. Blood was collected from the abdominal aorta, centrifuged, and sera were frozen at −80° C. prior to determination of serum hormone levels. Serum luteinizing hormone (LH) and follicle stimulating hormone (FSH) concentrations were determined.
Male Sprague-Dawley rats weighing approximately 200 g were purchased from Harlan Bioproducts for Science (Indianapolis, Ind.). […] Anabolic and androgenic activity of compound of Formula IX in intact animals was evaluated, and the dose response in acutely orchidectomized (ORX) animals was evaluated as well. Regenerative effects of compound of Formula IX in chronically (9 days) ORX rats were also assessed.
The compound was weighed and dissolved in 10% DMSO (Fisher) diluted with PEG 300 (Acros Organics, NJ) for preparation of the appropriate dosage concentrations. […] Intact and ORX animals were randomly assigned to one of seven groups consisting of 4 to 5 animals per group. Control groups (intact and ORX) were administered vehicle daily. Compound of Formula IX was administered via oral gavage at doses of 0.01, 0.03, 0.1, 0.3, 0.75, and 1 mg/day to both intact and ORX groups.
as §1, with “Castrated animals (on day one of the study) were randomly assigned to dose groups (4-5 animals/group) of 0.01, 0.03, 0.1, 0.3, 0.75, and 1 mg/day, for dose-response evaluation. Dosing began nine days post ORX and was administered daily via oral gavage for fourteen days. […] In” for “In”, “As a measure of androgenic activity, ventral” for “Ventral”, “evaluated,” for “evaluated as a measure of androgenic activity,”, “lutenizing” for “luteinizing”
Male Sprague-Dawley rats weighing approximately 200 g were purchased from Harlan Bioproducts for Science (Indianapolis, Ind.).

[2] = test system: prostate, seminal vesicles and levator ani muscle; assay: Androgenic and anabolic effects in intact, hemi-orchidectomized and castrated rats, subdermal osmotic pumps, 14 days; details: 0.5 mg/day; for Levator Ani weight / prostate weight / seminal vesicle weight: n = 5
Method: Male Sprague-Dawley rats were purchased from Harlan Biosciences (Indianapolis, Ind.). The animals were maintained on a 12 h cycle of light and dark with food and water available ad libitum. All animal studies were reviewed and approved. Immature male Sprague-Dawley rats weighing 187 to 214 g were randomly distributed into 9 groups of 5 animals. One day before the initiation of drug treatment, groups 4 through 6 and groups 7 through 9 received unilateral or bilateral orchidectomy, respectively, via a midline scrotal incision. […] All drugs given to animals were freshly prepared as solutions in polyethylene glycol 300 (PEG 300). Groups 4 and 7 received treatment with vehicle alone (i.e., PEG 300). […] Animals in groups 2, 5, and 8 received compound of Formula XII (0.5 mg/day) via implantation of subdermal osmotic pumps. After 14 days of drug treatment, rats were weighed, anesthetized, and sacrificed. The ventral prostates, seminal vesicles, and levator ani muscle were removed and weighed. Osmotic pumps were also removed from animals to check for correct pump operation. The weights of all organs were normalized to body weight, and analyzed for any statistically significant differences between groups using single-factor ANOVA with the alpha value set a priori at p<0.05. The weights of prostates and seminal vesicles were used as indices for evaluation of androgenic activity, and the levator ani muscle weight was used to evaluate the anabolic activity. Statistical analyses of parameters from complete blood count or serum chemical profiling, wherever applicable, were performed by single-factor ANOVA with the alpha value set a priori at p<0.05.

[3] = test system: prostate, seminal vesicles and levator ani muscle; assay: Androgenic and anabolic activity in intact male rats, daily oral gavage
Method: Male Sprague-Dawley rats weighing approximately 200 g were purchased from Harlan Bioproducts for Science (Indianapolis, Ind.). The animals were maintained on a 12 h light/dark cycle with food (7012C LM-485 Mouse/Rat Sterilizable Diet, Harlan Teklad, Madison, Wis.) and water available ad libitum. The anabolic and androgenic activity of compound of Formula VIII in intact animals was tested, as well as a dose response evaluation in acutely orchidectomized (ORX) animals. Regenerative effects of the compound of Formula VIII in chronically (9 days) ORX rats was similarly evaluated.
The test article for this study was weighed and dissolved in 10% DMSO (Fisher) diluted with PEG 300 (Acros Organics, NJ) for preparation of the appropriate dosage concentrations. The animals were housed in groups of 2 to 3 animals per cage. Animals were randomly assigned to one of seven groups consisting of 4 to 5 animals per group. Control groups (intact and ORX) were administered vehicle daily. Compound of Formula VIII was administered via oral gavage at doses of 0.01, 0.03, 0.1, 0.3, 0.75, and 1 mg/day to both intact and ORX groups. Where appropriate, animals were castrated on day one of the study. Treatment with compound of Formula VIII began nine days post ORX and was administered daily via oral gavage for fourteen days.
as §1, with “The animals were sacrificed under anesthesia (ketamine/xyalzine, 87:13 mg/kg) and body weights were recorded. In” for “In”
Male Sprague-Dawley rats weighing approximately 200 g were purchased from Harlan Bioproducts for Science (Indianapolis, Ind.). The animals were maintained on a 12 h light/dark cycle with food (7012C LM-485 Mouse/Rat Sterilizable Diet, Harlan Teklad, Madison, Wis.) and water available ad libitum. Anabolic and androgenic activity of compound of Formula IX in intact animals was evaluated, and the dose response in acutely orchidectomized (ORX) animals was evaluated as well. Regenerative effects of compound of Formula IX in chronically (9 days) ORX rats were also assessed.
The compound was weighed and dissolved in 10% DMSO (Fisher) diluted with PEG 300 (Acros Organics, NJ) for preparation of the appropriate dosage concentrations. The animals were housed in groups of 2 to 3 animals per cage. Intact and ORX animals were randomly assigned to one of seven groups consisting of 4 to 5 animals per group. Control groups (intact and ORX) were administered vehicle daily. Compound of Formula IX was administered via oral gavage at doses of 0.01, 0.03, 0.1, 0.3, 0.75, and 1 mg/day to both intact and ORX groups.
Castrated animals (on day one of the study) were randomly assigned to dose groups (4-5 animals/group) of 0.01, 0.03, 0.1, 0.3, 0.75, and 1 mg/day, for dose-response evaluation. Dosing began nine days post ORX and was administered daily via oral gavage for fourteen days. The animals were sacrificed under anesthesia (ketamine/xyalzine, 87:13 mg/kg) after a 14-day dosing regimen, and body weights were recorded. In addition, ventral prostate, seminal vesicles, and levator ani muscle were removed, individually weighed, normalized to body weight, and expressed as a percentage of intact control. Student's T-test was used to compare individual dose groups to the intact control group. […]

## CC(=O)Nc1ccc(OC[C@](C)(O)C(=O)Nc2ccc([N+](=O)[O-])c(C(F)(F)F)c2)cc1 [XII, S-3-(4-acetylaminophenoxy)-2-hydroxy-2-methyl-N-(4-nitro-3-trifluoromethylphenyl) propionamide]
[1]
  maximal stimulation of levator ani muscle weight: 101%
[2]
  adverse pharmacologic effects: No adverse pharmacologic effects were observed
[2]; Castrated rats
  Levator Ani weight: 100.65 ± 10.86 % of intact control
  prostate weight: 32.55 ± 11.65 % of intact control
  seminal vesicle weight: 16.47 ± 5.21 % of intact control
[2]; Hemi-castrated rats
  Levator Ani weight: 108 % of intact control and 108.10 ± 8.92 % of intact control
  prostate weight: 75 % of intact control and 74.69 ± 8.44 % of intact control
  seminal vesicle weight: 79 % of intact control and 78.55 ± 13.58 % of intact control
[2]; Intact rats
  Levator Ani weight: 109.15 ± 14.68 % of intact control
  prostate weight: 79 % of intact control and 79.41 ± 9.32 % of intact control
  seminal vesicle weight: 90.54 ± 12.10 % of intact control

## C[C@](O)(COc1ccc(Cl)c(F)c1)C(=O)Nc1ccc(C#N)c(C(F)(F)F)c1 [XIV, (S)-3-(4-chloro-3-fluorophenoxy)-N-(4-cyano-3-(trifluoromethyl)phenyl)-2-hydroxy-2-methylpropanamide]
[3]; 0.01 mg/day
  levator ani muscle weight: 100%±10%
  prostate weight: 117%±20%
[3]; 0.03 mg/day
  levator ani muscle weight: 98%±7%
  prostate weight: 98%±15%
[3]; 0.1 mg/day
  levator ani muscle weight: 110%±5%
  prostate weight: 82%±20%
[3]; 0.3 mg/day
  levator ani muscle weight: 110%±5%
  prostate weight: 62%±5%
[3]; 0.75 mg/day
  levator ani muscle weight: 125%±10%
  prostate weight: 107%±30%
[3]; 1 mg/day
  levator ani muscle weight: 129%±10%
  prostate weight: 110%±14%

Reference: patent US20180353460A1, “METHODS OF TREATING UROLOGICAL DISORDERS USING SARMs” (priority 2014, published 2018)
